Experimental data from patent US20230024528A1, “METHODS OF USE OF ANTI-TREM2 ANTIBODIES” (Alector LLC, priority 2019, published 2023).

System: human macrophages
Test: Human macrophage cell viability and survival following CSF1R inhibition with PLX3397, CellTiter-Glo
Assay type: cell-based
Settings: PLX3397 30 nM alone, complete RPMI media
Method: To evaluate the ability of an anti-TREM2 antibody to sustain survival of human macrophages after CSF1R inhibition, the ability of AL2p-58 huIgG1 PSEG to enhance cell-viability and survival in the presence of CSF1R inhibitor PLX3397 was tested (DeNardo et al., Cancer Discov (2011) 1(1):54-67. 22039576t; Peng, et al., J. of Exp Canc Res (2019) 38(1):372. PMID: 31438996). Similar to CSF1 withdrawal experiments, human derived macrophages were plated onto 96-well plates on Day 6 and treated with IgG1, PLX3397 (30 nM), AL2p-58 huIgG1 PSEG (10 μg/mL) or a combination of PLX3397 and AL2p-58 huIgG1 PSEG on Day 7, all in complete RPMI media. Cell viability was quantified using the CellTiter-Glo luminescent viability assay (Promega) on each subsequent day.

## FC(F)(F)c1ccc(CNc2ccc(Cc3c[nH]c4ncc(Cl)cc34)cn2)cn1 [PLX3397, reference compound]
  cell viability of human macrophages treated with CSF1R inhibitor alone: reduced cell viability
